Data reported in PMC5755953, “Identification of Allosteric Modulators of Metabotropic Glutamate 7 Receptor Using Proteochemometric Modeling” (Journal of Chemical Information and Modeling, 2017).

Tests used:
mGlu7 [1] = tested on: mGlu7; set-up: method as in PMID 16339898; settings: known reference compound, agonist/PAM; cited from earlier work
mGlu7 [2] = tested on: mGlu7; set-up: method as in PMID 17609420; settings: known reference compound, allosteric antagonist/NAM; cited from earlier work
mGlu7 receptor = target: T1, mGlu7 receptor (Homo sapiens, UniProt Q14831); assay: mGlu7 PAM assay (Ca2+ response, concentration response); format: cell-based; settings: confirmed hits of virtual screening; for EC50: concentration response, read-out: mGlu7 PAM pEC50 (converted)
T1 construct: expressed in transfected cells; host or cells: HEK 293 cells

mGlu1 to mGlu8 receptor = assay: mGlu receptor panel selectivity assays (activation or inactivation); format: cell-based; settings: up to concentration cutoffs of 10 μM
Procedure: Active hits from the VS were sourced from the Janssen corporate compound collection, no new synthesis was performed at this time, and batch purity information is provided in the Supporting Information (Table S5). The selectivity of the hits 1 to 4 was assessed by in vitro screening in the same panel of mGlu1 to mGlu8 receptor activation or inactivation assays.
(§1) Method for selectivity assays mGlu receptor panel selectivity assays: Ca2+ assays with human mGlu1, 3, 5, 7, or 8 receptor expressing HEK 293 cells were performed as reported in Lavreysen et al. (2013), except for a slight change in the procedure for mGlu5: cells expressing the human mGlu5 receptor were seeded at 40,000 cells/well in MW384. TwentyEfour hours after seeding, cells were incubated for 90 min in Ca2+ assay kit (Molecular Devices) dissolved in saline PBS supplemented with 5 mmol/L probenecid, pH 7.4 (f.c. 2.5 mmol/L probenecid as loading buffer was added on the cell layer without removal of medium) before measurements. Measurement of [35S]GTPγS binding to membranes from CHO cells expressing the rat mGlu6 receptor and membranes from L929sA cells expressing the human mGlu4 receptor were conducted also as described in Lavreysen et al.
(§2) Lavreysen H, et al. Pharmacological Characterization of JNJE40068782, a New Potent, Selective, and Systemically Active Positive Allosteric Modulator of the mGlu2 Receptor and Its

mGlu4 = target: T2, mGlu4 (Homo sapiens, UniProt Q14833); assay: mGlu4 agonism assay ([35S]GTPγS binding to membranes); format: biochemical; settings: selectivity panel; read-out: pEC50 in mGlu4 agonism assay (converted)
T2 construct: expressed in transfected cells; host or cells: L929sA cells (membranes)
Procedure: as §1, §2

T1 sequence (Q14831 35-915): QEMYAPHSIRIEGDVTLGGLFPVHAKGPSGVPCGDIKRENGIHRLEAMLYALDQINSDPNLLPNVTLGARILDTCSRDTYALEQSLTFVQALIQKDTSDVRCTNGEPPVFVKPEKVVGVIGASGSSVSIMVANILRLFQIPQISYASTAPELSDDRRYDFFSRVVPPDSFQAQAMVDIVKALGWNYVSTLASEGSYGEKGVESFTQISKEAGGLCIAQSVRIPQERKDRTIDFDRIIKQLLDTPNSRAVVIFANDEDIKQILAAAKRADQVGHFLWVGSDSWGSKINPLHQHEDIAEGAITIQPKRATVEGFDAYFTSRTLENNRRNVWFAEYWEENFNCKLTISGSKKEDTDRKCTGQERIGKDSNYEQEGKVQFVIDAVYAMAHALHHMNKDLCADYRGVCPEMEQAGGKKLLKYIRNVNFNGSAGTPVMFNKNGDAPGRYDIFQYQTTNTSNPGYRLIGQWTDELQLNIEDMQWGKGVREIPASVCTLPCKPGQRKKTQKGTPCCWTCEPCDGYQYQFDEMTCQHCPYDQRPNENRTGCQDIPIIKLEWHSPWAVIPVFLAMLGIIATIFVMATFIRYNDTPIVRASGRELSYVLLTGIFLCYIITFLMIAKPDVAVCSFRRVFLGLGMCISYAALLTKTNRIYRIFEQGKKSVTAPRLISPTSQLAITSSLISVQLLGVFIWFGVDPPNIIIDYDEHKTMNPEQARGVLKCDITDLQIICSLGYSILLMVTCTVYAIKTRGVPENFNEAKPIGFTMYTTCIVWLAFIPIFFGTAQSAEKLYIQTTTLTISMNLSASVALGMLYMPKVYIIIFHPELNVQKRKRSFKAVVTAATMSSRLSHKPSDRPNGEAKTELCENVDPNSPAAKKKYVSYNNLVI
T2 sequence (Q14833 33-912): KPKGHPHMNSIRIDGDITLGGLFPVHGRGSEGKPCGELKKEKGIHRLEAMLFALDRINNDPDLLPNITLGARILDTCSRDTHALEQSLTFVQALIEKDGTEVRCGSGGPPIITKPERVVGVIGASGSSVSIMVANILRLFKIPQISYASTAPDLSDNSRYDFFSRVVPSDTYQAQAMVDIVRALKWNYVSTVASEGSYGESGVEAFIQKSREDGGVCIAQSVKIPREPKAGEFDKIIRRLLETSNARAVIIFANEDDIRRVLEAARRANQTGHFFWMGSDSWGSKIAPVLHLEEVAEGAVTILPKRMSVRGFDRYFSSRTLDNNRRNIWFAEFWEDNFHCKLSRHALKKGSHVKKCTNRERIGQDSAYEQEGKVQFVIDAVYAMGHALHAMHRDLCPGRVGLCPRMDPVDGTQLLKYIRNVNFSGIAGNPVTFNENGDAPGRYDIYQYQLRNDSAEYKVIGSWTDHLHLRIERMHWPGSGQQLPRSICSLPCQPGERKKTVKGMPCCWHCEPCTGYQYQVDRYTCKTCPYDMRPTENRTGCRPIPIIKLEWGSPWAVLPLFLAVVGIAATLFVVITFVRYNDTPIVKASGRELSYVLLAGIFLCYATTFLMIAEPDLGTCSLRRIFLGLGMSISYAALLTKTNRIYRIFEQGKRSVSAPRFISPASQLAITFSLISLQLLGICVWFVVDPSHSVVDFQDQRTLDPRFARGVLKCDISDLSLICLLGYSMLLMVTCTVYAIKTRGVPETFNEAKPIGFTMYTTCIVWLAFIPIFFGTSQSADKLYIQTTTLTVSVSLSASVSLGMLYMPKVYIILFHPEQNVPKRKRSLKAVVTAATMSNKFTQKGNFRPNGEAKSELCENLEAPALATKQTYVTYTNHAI

Row | Emax (mGlu7 receptor) | EC50 (mGlu7 receptor) | Structure (SMILES) | activity in panel of mGlu1 to mGlu8 receptor activation or inactivation assays (mGlu1 to mGlu8 receptor) | also measured
1 | 86% | 12.6 µM | COc1cc(F)cc(COc2ccc(C(=O)N[C@H](C)C(C)(C)C)cn2)c1 [compound 1] | No activity | –
2 | 103% | 12.6 µM | COc1c(F)cccc1COc1ccc(C(=O)N[C@H](C)C(C)(C)C)cn1 [compound 2] | No activity | –
3 | 57% | 31.6 µM | CC(C)(C)OC(=O)N1CCc2ccc(-n3cc(-c4ccncc4)cn3)cc2CC1 [compound 4] | No activity | –

Second part, the compound before the results:

Row | Structure (SMILES) | Emax (mGlu7 receptor) | EC50 (mGlu7 receptor) | activity in panel of mGlu1 to mGlu8 receptor activation or inactivation assays (mGlu1 to mGlu8 receptor) | also measured
4 | c1ccc(C(NCCNC(c2ccccc2)c2ccccc2)c2ccccc2)cc1 [AMN-082] | – | – | – | PAM activity reported in cAMP and Ca2+ assays (mGlu7 [1]): Active PAM reported in cAMP but not Ca2+ assays
5 | COc1ccc(-c2cc3onc(-c4ccncc4)c3c(=O)n2C)cc1 [MMPIP] | – | – | – | mGlu7-ant pIC50 (mGlu7 [2]): 7
6 | CNC(=O)N1CCCC(CN2CCC(OC(c3ccccc3)c3ccccc3)CC2)C1 (stereo not shown) [compound 3] | – | – | – | EC50 (mGlu4): 0.631 µM
7 | COc1ccc(CN2CCc3c(nc(N4CCC(C)CC4)[nH]c3=O)C2)cc1 [compound 5] | 99% | 15.8 µM | – | –
8 | CC1CCN(c2nc(-c3ccncc3)nc3cnccc23)CC1 [compound 6] | 65% | > 30.2 µM | – | –
